In experiment [1] the test system is IL-4 stimulated expression of CD23 in human Ramos B cells (JAK-1 and JAK-3). Nature of the experiment: Assay for Ramos B-Cell Line Stimulated with IL-4 (CD23 upregulation, FACS). It counts as cell-based. The note with it: read-out: IC50, Example 41. The method, boiled down: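 Human Ramos B cells in RPMI with 5% serum were pre-incubated with compound or DMSO for 1 h at 37 °C, then stimulated with IL-4 at a final 50 units/mL for 20-24 h. CD23 upregulation was measured by anti-CD23-PE staining and flow cytometry, and IC50 values were calculated.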

Another experiment has as its system Primary human T-cells. Nature of the experiment: Primary Human T-Cell Proliferation Assay Stimulated with IL-2 (CellTiter-Glo). It counts as cell-based. The following applies: read-out: IC50, Example 42. Put shortly:
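Peripheral blood T-cells pre-activated with anti-CD3/anti-CD28 and IL-2 were washed free of IL-2, then cultured with compound plus IL-2 for 72 hours at 37° C, duplicate wells. Viability read as ATP by CellTiter-Glo luminescence; IC50 reported.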
On the technique in general: ATP-based viability assays read luminescence as a measure of living cells.

Where [2] appears, read: Ramos B-cell line stimulated with IL-4, CD23 expression by FACS.
Setting [3] is: primary human T-cell proliferation stimulated with IL-2.
Where [4] appears, read: Ramos B cells stimulated with IL-4, CD23 expression by FACS.
[5] abbreviates: primary human T-cells stimulated with IL-2, proliferation.

Like-named read-outs stand apart in the source and are kept apart here.

The term IC50 denotes the concentration at which inhibition is half-maximal. In the case of `CC(Oc1ccc(Nc2nc(Nc3cccc(S(N)(=O)=O)c3)ncc2F)cc1)C(N)=O` (racemic) [Compound I-117, Racemic N4-[4-(1-Aminocarbonyl)ethoxy]phenyl-N2-(3-aminosulfonyl)phenyl-5-fluoro-2,4-pyrimidinediamine], the IC50 in experiment [1] (setting [2]) was 353 nM; in the experiment with Primary human T-cells (setting [3]), 301 nM.

On to `Cc1cc(Nc2nc(Nc3ccc(S(N)(=O)=O)cc3)ncc2F)ccc1OC(C)C(N)=O` (racemic) [Compound I-119, Racemic N4-[4-(1-Aminocarbonyl)ethoxy-3-methyl]phenyl-N2-(4-aminosulfonyl)phenyl-5-fluoro-2,4-pyrimidinediamine], for which the values for the IC50 (in experiment [1] (setting [2]); with Primary human T-cells (setting [3])) were 211 nM and 2440 nM, respectively.

For the molecule `Cc1cc(Nc2nc(Nc3cccc(S(N)(=O)=O)c3)ncc2F)ccc1OC(C)C(N)=O` (racemic) [Compound I-120, Racemic N4-[4-(1-Aminocarbonyl)ethoxy-3-methyl]phenyl-N2-(3-aminosulfonyl)phenyl-5-fluoro-2,4-pyrimidinediamine], the IC50 in experiment [1] (setting [2]) worked out at 201 nM; in the experiment with Primary human T-cells (setting [3]) it was 280 nM.

On to `Cc1cc(Nc2nc(Nc3ccc(C)c(S(N)(=O)=O)c3)ncc2F)ccc1OC(C)C(N)=O` (racemic) [Compound I-121, Racemic N4-[4-(1-Aminocarbonyl)ethoxy-3-methyl]phenyl-N2-(3-aminosulfonyl-4-methyl)phenyl-5-fluoro-2,4-pyrimidinediamine], for which the IC50 was 184 nM in experiment [1] (setting [2]) and 634 nM in the experiment on Primary human T-cells (setting [3]).

Consider `Cc1cc(Nc2nc(Nc3ccc(S(N)(=O)=O)cc3)ncc2F)cc(C)c1OC(C)C(N)=O` (racemic) [Compound I-122, Racemic N4-[4-(1-Aminocarbonyl)ethoxy-3,5-dimethyl]phenyl-N2-(4-aminosulfonyl)phenyl-5-fluoro-2,4-pyrimidinediamine], for which the 50% inhibitory concentration (IC50) in experiment [1] (setting [2]) came to 292 nM; with Primary human T-cells (setting [3]), 3500 nM.

On to `Cc1cc(Nc2nc(Nc3cccc(S(N)(=O)=O)c3)ncc2F)cc(C)c1OC(C)C(N)=O` (racemic) [Compound I-123, Racemic N4-[4-(1-Aminocarbonyl)ethoxy-3,5-dimethyl]phenyl-N2-(3-aminosulfonyl)phenyl-5-fluoro-2,4-pyrimidinediamine], for which the half-inhibitory concentration (IC50) was found to be 159 nM in experiment [1] (setting [2]) and 225 nM in the experiment with Primary human T-cells (setting [3]).

On to `Cc1ccc(Nc2ncc(F)c(Nc3cc(C)c(OC(C)C(N)=O)c(C)c3)n2)cc1S(N)(=O)=O` (racemic) [Compound I-124, Racemic N4-[4-(1-Aminocarbonyl)ethoxy-3,5-dimethyl]phenyl-N2-(3-aminosulfonyl-4-methyl)phenyl-5-fluoro-2,4-pyrimidinediamine], for which the IC50 in experiment [1] (setting [2]) turned out to be 102 nM; with Primary human T-cells (setting [3]) it was 342 nM.

As to `Cc1ccc(Nc2ncc(F)c(Nc3ccc4c(c3)CC(C(=O)N(C)C)O4)n2)cc1S(N)(=O)=O` (racemic) [VII-26, Racemic N2-(3-Aminosulfonyl-4-methylphenyl)-N4-[2-(N,N-dimethylaminocarbonyl)-2,3-dihydrobenzofuran-5-yl]-5-fluoro-2,4-pyrimidinediamine], the IC50 in experiment [1] (setting [4]) came out at 545 nM; in the experiment on Primary human T-cells (setting [5]), 1200 nM.

Consider `CN(C)C(=O)C1Cc2cc(Nc3nc(Nc4ccc(Cl)c(S(N)(=O)=O)c4)ncc3F)ccc2O1` (racemic) [VII-27, Racemic N2-(3-Aminosulfonyl-4-chlorophenyl)-N4-[2-(N,N-dimethylaminocarbonyl)-2,3-dihydrobenzofuran-5-yl]-5-fluoro-2,4-pyrimidinediamine], for which the IC50 was 413 nM in experiment [1] (setting [4]) and 2050 nM in the experiment on Primary human T-cells (setting [5]).

For `CC(C)c1ccc(Nc2ncc(F)c(Nc3ccc(OCC#N)cc3)n2)cc1S(N)(=O)=O` [Compound I-8, N2-(3-Aminosulfonyl-4-iso-propylphenyl)-N4-(4-cyanomethyleneoxyphenyl)-5-fluoro-2,4-pyrimidinediamine], the IC50 in experiment [1] (setting [2]) turned out to be 58.7 nM; in the experiment with Primary human T-cells (setting [3]), 174 nM.

Regarding `CN1CCN(c2ccc(Nc3ncc(F)c(Nc4ccc(OCC#N)cc4)n3)cc2S(N)(=O)=O)CC1` [Compound I-9, N2-[3-Aminosulfonyl-4-(4-methylpiperazin-1-yl)phenyl]-5-fluoro-N4-(4-cyanomethyleneoxyphenyl)-2,4-pyrimidinediamine], the IC50 is 233 nM in experiment [1] (setting [2]) and 485 nM in the experiment with Primary human T-cells (setting [3]).

Take `CN1CCN(c2ccc(Nc3ncc(F)c(Nc4ccc(OCC#N)c(F)c4)n3)cc2S(N)(=O)=O)CC1` [Compound I-10, N2-[3-Aminosulfonyl-4-(4-methylpiperazine-1-yl)phenyl]-5-fluoro-N4-(4-cyanomethyleneoxy-3-fluorophenyl)-2,4-pyrimidinediamine]: the results for the IC50 (in experiment [1] (setting [2]); with Primary human T-cells (setting [3])) were 25.5 nM and 95.7 nM, respectively.

In the case of `Cc1ccc(Nc2ncc(F)c(Nc3ccc(OCC#N)c(F)c3)n2)cc1S(N)(=O)=O` [Compound I-11, N2-(3-Aminosulfonyl-4-methylphenyl)-5-fluoro-N4-(4-cyanomethyleneoxy-3-fluorophenyl)-2,4-pyrimidinediamine], the IC50 came to 23.3 nM in experiment [1] (setting [2]) and 39.3 nM with Primary human T-cells (setting [3]).

For `N#CCOc1ccc(Nc2nc(Nc3cccc(S(N)(=O)=O)c3)ncc2F)cc1F` [Compound I-12, N2-(3-Aminosulfonylphenyl)-5-fluoro-N4-(4-cyanomethyleneoxy-3-fluorophenyl)-2,4-pyrimidinediamine], the IC50 in experiment [1] (setting [2]) turned out to be 36.9 nM; in the experiment with Primary human T-cells (setting [3]), 59.7 nM.

As to `N#CCOc1ccc(Nc2nc(Nc3cccc(S(N)(=O)=O)c3)ncc2Br)cc1` [Compound I-13, N2-(3-Aminosulfonylphenyl)-5-bromo-N4-(4-cyanomethyleneoxyphenyl)-2,4-pyrimidinediamine], the results for the IC50 (in experiment [1] (setting [2]); in the experiment with Primary human T-cells (setting [3])) were 6.27 nM and 5.05 nM, respectively.

`Cc1ccc(Nc2ncc(Br)c(Nc3ccc(OCC#N)cc3)n2)cc1S(N)(=O)=O` [Compound I-14, N2-(3-Aminosulfonyl-4-methylphenyl)-5-bromo-N4-(4-cyanomethyleneoxyphenyl)-2,4-pyrimidinediamine]: the values for the IC50 (in experiment [1] (setting [2]); in the experiment on Primary human T-cells (setting [3])) were 13 nM and 11.5 nM, respectively.

With `C[Si](C)(C)C#Cc1cnc(Nc2cccc(S(N)(=O)=O)c2)nc1Nc1ccc(OCC#N)cc1` [Compound I-15, N2-(3-Aminosulfonylphenyl)-N4-(4-cyanomethyleneoxyphenyl)-5-trimethylsilylacetylene-2,4-pyrimidinediamine], the values for the half-inhibitory concentration (IC50) (in experiment [1] (setting [2]); in the experiment on Primary human T-cells (setting [3])) were 309 nM and 1180 nM, respectively.

As for `Cc1ccc(Nc2ncc(F)c(Nc3cc(C)c(OCC(N)=O)c(C)c3)n2)cc1S(N)(=O)=O` [Compound I-96, N4-(4-Aminocarbonylmethoxy-3,5-dimethyl)phenyl-N2-(3-aminosulfonyl-4-methyl)phenyl-5-fluoro-2,4-pyrimidinediamine], the IC50 in experiment [1] (setting [2]) is 132 nM; in the experiment on Primary human T-cells (setting [3]), 772 nM.

On to `Cc1cc(Nc2nc(Nc3ccc(S(N)(=O)=O)cc3)ncc2F)ccc1OCC(N)=O` [Compound I-113, N4-(4-Aminocarbonylmethoxy-3-methyl)phenyl-N2-(4-aminosulfonyl)phenyl-5-fluoro-2,4-pyrimidinediamine], for which the IC50 turned out to be 165 nM in experiment [1] (setting [2]) and 1690 nM in the experiment with Primary human T-cells (setting [3]).

As to `Cc1ccc(Nc2ncc(F)c(Nc3ccc(OC(C)C(N)=O)cc3)n2)cc1S(N)(=O)=O` (stereo not shown) [Compound I-118, N4-[4-(1-Aminocarbonyl)ethoxy]phenyl-N2-(3-aminosulfonyl-4-methyl)phenyl-5-fluoro-2,4-pyrimidinediamine], the IC50 in experiment [1] (setting [2]) was 292 nM; with Primary human T-cells (setting [3]) it was 557 nM.

Source of the values: patent US11827628B2, “Compositions and methods for inhibition of the JAK pathway” (Rigel Pharmaceuticals, Inc., priority 2005, dated 2023).
